Data published in patent US20240294541A1, “COMPOUNDS CONSTITUTING C20-MODIFIED SALINOMYCIN DERIVATIVES, A METHOD FOR OBTAINING THE SAME, A COMPOSITION CONTAINING THE SAME AND A USE OF SAID COMPOUNDS” (FILECLO SPOLKA Z OGRANICZONA ODPOWIEDZIALNOSCIA, priority 2021, published 2024).

Tests used:
Format in all cases: cell-based
[1] = tested on: BALB/3T3 (normal mouse fibroblasts); assay: In vitro cytotoxicity, SRB assay, normal BALB/3T3 fibroblasts; settings: Table 5; BALB/3T3 normal mouse fibroblasts; read-out: IC50 (nM) BALB3T3 normal cells
[2] = tested on: MV-4-11 (human biphenotypic leukaemia); assay: In vitro cytotoxicity, MTT assay, MV-4-11; settings: for IC50: Homo sapiens, MV4-11, read-out: IC50 (nM) MV4-11
[3] = tested on: A2780Cis (cisplatin-resistant human ovarian cancer); assay: In vitro cytotoxicity, SRB assay, A2780Cis; settings: for IC50: Homo sapiens, A2780cis, read-out: IC50 (nM) A2780Cis

## CC[C@@H](C(=O)[C@@H](C)[C@@H](O)[C@H](C)[C@@H]1O[C@@H]([C@@H](CC)C(=O)O)CC[C@@H]1C)[C@H]1O[C@]2(C=C[C@@H](NC(=O)OCCCN(C)C)[C@]3(CC[C@@](C)([C@H]4CC[C@](O)(CC)[C@H](C)O4)O3)O2)[C@H](C)C[C@@H]1C [FLC-00498-1•Na]
[1]
  IC50: 5010 nM
[2]
  SI MV4-11: 3.2
  IC50: 1560 nM
[3]
  SI A2780Cis: 6.6
  IC50: 758 nM

## CC[C@@H](C(=O)[C@@H](C)[C@@H](O)[C@H](C)[C@@H]1O[C@@H]([C@@H](CC)C(=O)O)CC[C@@H]1C)[C@H]1O[C@]2(C=C[C@@H](NC(=O)CBr)[C@]3(CC[C@@](C)([C@H]4CC[C@](O)(CC)[C@H](C)O4)O3)O2)[C@H](C)C[C@@H]1C [FLC-00501-1•Na, C20-aminosalinomycin 2-bromoacetamide]
[1]
  IC50: 2830 nM
[2]
  SI MV4-11: 1.6
  IC50: 1740 nM
[3]
  SI A2780Cis: 1.3
  IC50: 2230 nM

## CC[C@@H](C(=O)[C@@H](C)[C@@H](O)[C@H](C)[C@@H]1O[C@@H]([C@@H](CC)C(=O)O)CC[C@@H]1C)[C@H]1O[C@]2(C=C[C@@H](NS(=O)(=O)c3ccc(C)cc3)[C@]3(CC[C@@](C)([C@H]4CC[C@](O)(CC)[C@H](C)O4)O3)O2)[C@H](C)C[C@@H]1C [FLC-00502-1•Na]
[1]
  IC50: 92.7 nM
[2]
  SI MV4-11: 28.1
  IC50: 3.3 nM
[3]
  SI A2780Cis: 52.7
  IC50: 1.76 nM

## CC[C@@H](C(=O)[C@@H](C)[C@@H](O)[C@H](C)[C@@H]1O[C@@H]([C@@H](CC)C(=O)O)CC[C@@H]1C)[C@H]1O[C@]2(C=C[C@@H](NS(=O)(=O)c3ccc(Br)cc3)[C@]3(CC[C@@](C)([C@H]4CC[C@](O)(CC)[C@H](C)O4)O3)O2)[C@H](C)C[C@@H]1C [FLC-00504-1•Na]
[1]
  IC50: 91.3 nM
[2]
  SI MV4-11: 20.7
  IC50: 4.4 nM
[3]
  SI A2780Cis: 30.5
  IC50: 2.99 nM

## CC[C@@H](C(=O)[C@@H](C)[C@@H](O)[C@H](C)[C@@H]1O[C@@H]([C@@H](CC)C(=O)O)CC[C@@H]1C)[C@H]1O[C@]2(C=C[C@@H](NS(=O)(=O)c3cccs3)[C@]3(CC[C@@](C)([C@H]4CC[C@](O)(CC)[C@H](C)O4)O3)O2)[C@H](C)C[C@@H]1C [FLC-00505-1•Na]
[1]
  IC50: 116 nM
[2]
  SI MV4-11: 8.3
  IC50: 14 nM
[3]
  SI A2780Cis: 15.2
  IC50: 7.61 nM

## CC[C@@H](C(=O)[C@@H](C)[C@@H](O)[C@H](C)[C@@H]1O[C@@H]([C@@H](CC)C(=O)O)CC[C@@H]1C)[C@H]1O[C@]2(C=C[C@@H](NC(=O)OCCC#N)[C@]3(CC[C@@](C)([C@H]4CC[C@](O)(CC)[C@H](C)O4)O3)O2)[C@H](C)C[C@@H]1C [FLC-00509-1•Na]
[1]
  IC50: 246 nM
[2]
  SI MV4-11: 10.9
  IC50: 22.6 nM
[3]
  SI A2780Cis: 14.7
  IC50: 16.7 nM

## CC[C@@H](C(=O)[C@@H](C)[C@@H](O)[C@H](C)[C@@H]1O[C@@H]([C@@H](CC)C(=O)O)CC[C@@H]1C)[C@H]1O[C@]2(C=C[C@@H](NC(=O)N3CCN(C)CC3)[C@]3(CC[C@@](C)([C@H]4CC[C@](O)(CC)[C@H](C)O4)O3)O2)[C@H](C)C[C@@H]1C [FLC-00515-1•Na]
[1]
  IC50: 3790 nM
[2]
  SI MV4-11: 9.5
  IC50: 400 nM
[3]
  SI A2780Cis: 10.6
  IC50: 357 nM

## CC[C@@H](C(=O)[C@@H](C)[C@@H](O)[C@H](C)[C@@H]1O[C@@H]([C@@H](CC)C(=O)O)CC[C@@H]1C)[C@H]1O[C@]2(C=C[C@@H](NC(=O)N3CCN(S(C)(=O)=O)C3=O)[C@]3(CC[C@@](C)([C@H]4CC[C@](O)(CC)[C@H](C)O4)O3)O2)[C@H](C)C[C@@H]1C [FLC-00519-1•Na]
[1]
  IC50: 6370 nM
[2]
  SI MV4-11: 4.0
  IC50: 1590 nM
[3]
  SI A2780Cis: 5.3
  IC50: 1190 nM
